Reference: patent publication US20250230138A1, “COMPOUNDS HAVING A T-STRUCTURE FORMED BY AT LEAST FOUR CYCLES FOR USE IN THE TREATMENT OF CANCER AND OTHER INDICATIONS” (TheRas, Inc., priority 2022, published 2025)
Where two headings read alike, the source gives them in different places.

Columns and labels:
[1] = target: Cys242 in human PIK3CA (157-299) (Homo sapiens (Human), UniProt P42336); experiment: Covalent modification assay using MALDI-TOF MS; type: biochemical; details: 4 h reaction time point
Sequence of Cys242 in human PIK3CA (157-299) (P42336 157-299): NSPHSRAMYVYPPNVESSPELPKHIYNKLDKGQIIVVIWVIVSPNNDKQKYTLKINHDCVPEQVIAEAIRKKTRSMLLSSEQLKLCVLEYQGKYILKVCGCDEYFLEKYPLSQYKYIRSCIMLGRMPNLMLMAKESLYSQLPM
Outline: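 PIK3CA (157-299) at 3.33 μM or 1 μM in 20 mM HEPES, 150 mM NaCl, 2 mM MgCl2, pH 7.3 was incubated with compound (from 10 mM DMSO stocks) in the dark at room temperature for 15 min, 30 min, 2 h or 4 h. Linear-mode MALDI-TOF peak heights gave percent modification.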

pAKT in BT474 cells = experiment: Cell-based pAKT HTRF assay in BT474 cells; details: BT474 cells, 4 hr incubation, read-out: pAKT inhibition IC50 in BT474 cells
Outline: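 Cells grown in DMEM with 10% FBS were exposed to compounds for 4 hr in 0.25% DMSO, using a 9-point, 3-fold dilution series that starts at 3 μM. Lysates were incubated with d2 and Eu Cryptate antibodies for 4–24 h at room temperature, and HTRF was read at 615 nm emission.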

[2] = 3.33 μM protein target, 1:7.5 protein to compound ratio (compounds 1-852)
[3] = 1 μM protein target, 1:5 protein to compound ratio (compounds 853-1279)
[4] = Homo sapiens, BT-474, Compounds 10-999

`C=CC(=O)N1CCc2nc(-c3nc(-c4cnn(C)c4)c4ccsc4c3-c3c(F)cc(F)cc3OC(C)C)sc2C1` [Compound 339] was tested, and the “% of modification” value [1, 2] was “A (percent of modification of PIK3CA protein ≥75%)” and the IC50 (pAKT in BT474 cells; Compounds 10-999) was less than 0.1 µM.
In the case of `C=CC(=O)N1CCn2nc(-c3nc(-c4ccc5c(c4)C4(CC4)CN(C)C5)c4ccsc4c3-c3c(F)cc(F)cc3OCCOC)cc2C1C` (stereo not drawn) [Compound 1193], the “% of modification” value [1, 3] is reported as “A (percent of modification of PIK3CA protein ≥75%)” and the IC50 (pAKT in BT474 cells; Compounds 1000-1279) is reported as less than 0.1 µM.
With `C=CC(=O)N1CCc2ncc(-c3nc(-c4cnn(C)c4)c(C(F)(F)F)cc3-c3ccc(F)cc3OC(C)C)cc2C1` [Compound 360, 1-[3-[3-(4-fluoro-2-isopropoxy-phenyl)-6-(1-methylpyrazol-4-yl)-5-(trifluoromethyl)-2-pyridyl]-7,8-dihydro-5H-1,6-naphthyridin-6-yl]prop-2-en-1-one] the “% of modification” value [1, 2] was “B (50%<percent of modification <75%)” and the IC50 (pAKT in BT474 cells; [4]) was greater than 3 µM.
With `C=CC(=O)N1CCn2nc(-c3nc(-c4cncc(C#N)c4)c4ccsc4c3-c3ccc(F)cc3OCCOC)cc2C1` [Compound 202] the “% of modification” value [1, 2] was “A (percent of modification of PIK3CA protein ≥75%)” and the IC50 (pAKT in BT474 cells; Compounds 10-999) was less than 0.1 µM.
For `C=CC(=O)N1CCc2nc(-c3nc(-c4cnn(C)c4)c4ccsc4c3-c3ccc(F)cc3OCC3CNC(=O)C3)sc2C1` (stereo not drawn) [Compound 187], the “% of modification” value [1, 2] was “A (percent of modification of PIK3CA protein ≥75%)” and the IC50 (pAKT in BT474 cells; Compounds 10-999) was less than 0.1 µM.
In the case of `C=CC(=O)N1CC[C@H](n2cc(-c3nc(-c4cnn(C)c4)c4ccsc4c3-c3c(F)cc(F)cc3OCCOC)cn2)C1` [Compound 368], the “% of modification” value [1, 2] is reported as “A (percent of modification of PIK3CA protein ≥75%)” and the IC50 (pAKT in BT474 cells; Compounds 10-999) is reported as 0.1 to 1 µM.
`C=CC(=O)N1CCc2nc(-c3nc(-c4cnn(CCO)c4)c4ccsc4c3-c3ccc(F)cc3OCCOC)sc2C1` [Compound 126] was tested, and the “% of modification” value [1, 2] was “A (percent of modification of PIK3CA protein ≥75%)” and the IC50 (pAKT in BT474 cells; Compounds 10-999) was less than 0.1 µM.
For `C=CC(=O)N1Cc2cc(-c3nc(-c4ccc5nn(C)cc5c4)c4ccsc4c3-c3c(F)cc(F)cc3OC[C@@H](C)O)nn2[C@@H](C)C1` [Compound 572, 1-((S)-2-((S)-7-(2,4-difluoro-6-((R)-2-hydroxypropoxy)phenyl)-4-(2-methyl-2H-indazol-5-yl)thieno[3,2-c]pyridin-6-yl)-7-methyl-6,7-dihydropyrazolo[1,5-a]pyrazin-5(4H)-yl)prop-2-en-1-one], the “% of modification” value [1, 2] was “A (percent of modification of PIK3CA protein ≥75%)” and the IC50 (pAKT in BT474 cells; Compounds 10-999) was less than 0.1 µM.
In the case of `C=CC(=O)N1CCn2nc(-c3nc(-c4ccc5c(c4)CCN(C)C5)c4ccsc4c3-c3c(F)cc(F)cc3OCCOC)cc2[C@H]1C` [Compound 510], the “% of modification” value [1, 2] is reported as “A (percent of modification of PIK3CA protein ≥75%)” and the IC50 (pAKT in BT474 cells; Compounds 10-999) is reported as less than 0.1 µM.
In the case of `C=CC(=O)N1CCn2nc(-c3nc(-c4ccc(C5CCCN5C)cc4)c4ccsc4c3-c3c(F)cc(F)cc3OCCOC)cc2C1C` (stereo not drawn) [Compound 1224], the “% of modification” value [1, 3] is reported as “A (percent of modification of PIK3CA protein ≥75%)” and the IC50 (pAKT in BT474 cells; Compounds 1000-1279) is reported as less than 0.1 µM.
With `C=CC(=O)N1CCc2nc(-c3nc(-c4ccc5c(c4)CC(N)C5)c4ccsc4c3-c3ccc(F)cc3OCCOC)sc2C1` (stereo not drawn) [Compound 156] the “% of modification” value [1, 2] was “A (percent of modification of PIK3CA protein ≥75%)” and the IC50 (pAKT in BT474 cells; Compounds 10-999) was less than 0.1 µM.
With `C=CC(=O)N1Cc2cc(-c3nc(N4CCC(N(C)C)CC4)c4ccsc4c3-c3c(F)cc(F)cc3OCCOC)nn2CC1C` (stereo not drawn) [Compound 857] the “% of modification” value [1, 3] was “A (percent of modification of PIK3CA protein ≥75%)” and the IC50 (pAKT in BT474 cells; Compounds 10-999) was less than 0.1 µM.
For `C=CC(=O)N1Cc2cc(-c3nc(-c4ccc5ncn(C)c5c4)c4ccsc4c3-c3c(F)cc(F)cc3OC(C)C)nn2CC1C` (stereo not drawn) [Compound 488], the “% of modification” value [1, 2] was “A (percent of modification of PIK3CA protein ≥75%)” and the IC50 (pAKT in BT474 cells; Compounds 10-999) was less than 0.1 µM.
With `C=CC(=O)N1CCc2ncc(-c3nc(-c4cnn(CC(F)F)c4)c4ccsc4c3-c3c(F)cc(F)cc3OC(C)C)cc2C1` [Compound 371] the “% of modification” value [1, 2] was “A (percent of modification of PIK3CA protein ≥75%)” and the IC50 (pAKT in BT474 cells; Compounds 10-999) was less than 0.1 µM.
With `C=CC(=O)N1CCn2nc(-c3nc(-c4ccnc(N)c4)c4ccsc4c3-c3ccc(F)cc3OC(F)F)nc2C1` [Compound 217] the “% of modification” value [1, 2] was “A (percent of modification of PIK3CA protein ≥75%)” and the IC50 (pAKT in BT474 cells; Compounds 10-999) was less than 0.1 µM.
With `C=CC(=O)N1Cc2cc(-c3nc(-c4ccc5c(c4)CCN(C)C5)c4ccsc4c3-c3c(F)cc(F)cc3OC[C@@H](C)O)nn2C[C@H]1C` [Compound 606] the “% of modification” value [1, 2] was “D (percent of modification <25%)” and the IC50 (pAKT in BT474 cells; Compounds 10-999) was 1 to 3 µM.
For `C=CC(=O)N1CCn2nc(-c3nc(-c4ccn(C)c(=O)c4)c4ccsc4c3-c3c(F)cc(F)cc3OCCOC)cc2C1C` (stereo not drawn) [Compound 986], the “% of modification” value [1, 3] was “A (percent of modification of PIK3CA protein ≥75%)” and the IC50 (pAKT in BT474 cells; Compounds 10-999) was less than 0.1 µM.
In the case of `C=CC(=O)N1CCn2nc(-c3nc(-c4ccc(C(=O)N(C)CCN(C)C)cc4)c4ccsc4c3-c3c(F)cc(F)cc3OCCOC)cc2C1C` (stereo not drawn) [Compound 1206], the “% of modification” value [1, 3] is reported as “A (percent of modification of PIK3CA protein ≥75%)” and the IC50 (pAKT in BT474 cells; Compounds 1000-1279) is reported as less than 0.1 µM.
With `C=CC(=O)N1CCc2nc(-c3nc(-c4ccc5c(c4)CCN(C(C)C)C5)c4ccsc4c3-c3ccc(F)cc3OCCOC)sc2C1` [Compound 135] the “% of modification” value [1, 2] was “A (percent of modification of PIK3CA protein ≥75%)” and the IC50 (pAKT in BT474 cells; Compounds 10-999) was less than 0.1 µM.
`C=CC(=O)N1CCn2nc(-c3nc(-c4cnnc(C)c4)c4ccsc4c3-c3c(F)cc(F)cc3OCCOC)cc2C1C` (stereo not drawn) [Compound 790] was tested, and the “% of modification” value [1, 2] was “A (percent of modification of PIK3CA protein ≥75%)” and the IC50 (pAKT in BT474 cells; Compounds 10-999) was less than 0.1 µM.
`C=CC(=O)N1CCn2nc(-c3nc(-c4cnc5c(c4)CN(C)CC5(C)C)c4ccsc4c3-c3c(F)cc(F)cc3OCCOC)cc2[C@H]1C` [Compound 1161] was tested, and the “% of modification” value [1, 3] was “A (percent of modification of PIK3CA protein ≥75%)” and the IC50 (pAKT in BT474 cells; Compounds 1000-1279) was less than 0.1 µM.
With `C=CC(=O)N1CC(n2nc(C)c(-c3nc(-c4ccc5c(c4)CCNC5)c4ccsc4c3-c3ccc(F)cc3OC)c2C)C1` [Compound 165] the “% of modification” value [1, 2] was “A (percent of modification of PIK3CA protein ≥75%)” and the IC50 (pAKT in BT474 cells; Compounds 10-999) was less than 0.1 µM.
In the case of `C=CC(=O)N1Cc2cc(-c3nc(-c4ccc5nn(C)cc5c4)c4ccsc4c3-c3c(F)cc(F)cc3OC[C@@H](C)O)nn2[C@@H](C)C1` [Compound 571, 1-((S)-2-((R)-7-(2,4-difluoro-6-((R)-2-hydroxypropoxy)phenyl)-4-(2-methyl-2H-indazol-5-yl)thieno[3,2-c]pyridin-6-yl)-7-methyl-6,7-dihydropyrazolo[1,5-a]pyrazin-5(4H)-yl)prop-2-en-1-one], the “% of modification” value [1, 2] is reported as “D (percent of modification <25%)” and the IC50 (pAKT in BT474 cells; Compounds 10-999) is reported as less than 0.1 µM.
With `C=CC(=O)N1CCc2nc(-c3nc(-c4ccc5c(c4)CCNC5)c4ccsc4c3-c3ccc(F)cc3OC(C)C)sc2C1` [Compound 155] the “% of modification” value [1, 2] was “A (percent of modification of PIK3CA protein ≥75%)” and the IC50 (pAKT in BT474 cells; Compounds 10-999) was less than 0.1 µM.
With `C=CC(=O)N1CCn2nc(-c3nc(-c4ccc5c(cnn5C)c4)c4ccsc4c3-c3c(F)cc(F)cc3OCCO)cc2[C@H]1C` [Compound 908, 1-((R)-2-((S)-7-(2,4-difluoro-6-(2-hydroxyethoxy)phenyl)-4-(1-methyl-1H-indazol-5-yl)thieno[3,2-c]pyridin-6-yl)-4-methyl-6,7-dihydropyrazolo[1,5-a]pyrazin-5(4H)-yl)prop-2-en-1-one] the “% of modification” value [1, 3] was “A (percent of modification of PIK3CA protein ≥75%)” and the IC50 (pAKT in BT474 cells; [4]) was less than 0.1 µM.
For `C=CC(=O)N1CCn2nc(-c3nc(-c4ccc(=O)n(CC(F)F)c4)c4ccsc4c3-c3ccc(F)cc3OCCOC)cc2C1` [Compound 266], the “% of modification” value [1, 2] was “A (percent of modification of PIK3CA protein ≥75%)” and the IC50 (pAKT in BT474 cells; Compounds 10-999) was less than 0.1 µM.
`C=CC(=O)N1CCc2ccc(-c3nc(-c4ccc5c(c4)CN(CCO)CC5(F)F)c4ccsc4c3-c3c(F)cc(F)cc3OCCOC)cc2C1` [Compound 1273] was tested, and the “% of modification” value [1, 3] was “D (percent of modification <25%)” and the IC50 (pAKT in BT474 cells; Compounds 1000-1279) was greater than 1 µM.
